According to PMC8296573, “Synthesis and Biological Evaluation of Fingolimod Derivatives as Antibacterial Agents” (ACS Omega, 2021):
Values after ≈ are worked out from the molar mass of the structure shown. Read-outs that look alike come from different tables or passages of the source.

How the values were obtained:
A. baumannii NCTC 13423 = test: Antibacterial activity, pre-exposure; assay type: cell-based, Acinetobacter baumannii; settings: for Average inhibition %, biofilms viability / Average inhibition %, planktonic cells viability / inhibition at 10 µM / inhibition at 15 µM / inhibition at 25 µM / inhibition at 50 µM: A. baumannii NCTC 13423, pre-exposure, ± SD; for inhibition at 10 µM / inhibition at 15 µM / inhibition at 25 µM / inhibition at 50 µM: Acinetobacter baumannii, NCTC13423
Experimental: (§1) The antimicrobial activity was assessed in a similar way for the initial screening and the dose–response evaluation against different bacterial strains. With the exception of the post-exposure experiment, the compounds were added to the wells along with the bacteria to test the ability of compounds to prevent bacterial growth and biofilm formation (pre-exposure). The compounds were diluted in DMSO and plated directly in 96-well plates before adding the bacterial culture, and plates were incubated for 18 h under aerobic conditions at 37 °C with shaking (220 rpm). The antibacterial activity of the compounds was assessed on planktonic cells and biofilms separately using two different measurements for each: optical density (turbidity) and resazurin reduction (viability) on planktonic cells and resazurin followed by a crystal violet staining assay (total biomass) on biofilms, as described in the following sections.
(§2) The resazurin staining was performed according to the protocol previously optimized with a few modifications.[46] Briefly, the planktonic solution was first transferred into a new 96-well plate and the OD of the planktonic solution was measured using a Varioskan LUX Multimode microplate reader (Thermo Scientific, Vantaa, Finland). Then, 10 μL of a 400 μM resazurin (R7017, Sigma-Aldrich, St. Louis, MO) diluted in phosphate-buffered saline (PBS) (Thermo Fisher Scientific, MA) was added to the wells (for a final resazurin concentration of 20 μM). The plate was incubated in the dark with shaking (220 rpm) for about 3–10 min at room temperature with S. aureus and A. baumannii (until the bacteria controls turned pink) or for 20 min at 37 °C with P. aeruginosa. Fluorescence was measured at λex = 560 nm and λem = 590 nm using the top optics of the Varioskan LUX Multimode microplate reader. The planktonic plate was then discarded. The original challenge plate containing the biofilms was washed once with PBS, and 200 μL of a 20 μM resazurin solution was added to the wells. The plate was incubated in the dark at 37 °C with shaking (220 rpm) for 30 min with S. aureus, 60 min with A. baumannii, and 90 min with P. aeruginosa. Fluorescence was measured as described for the planktonic solution. The biofilms were next treated with crystal violet staining.
(§3) After removing the resazurin solution from the plate, biofilms were fixed with ethanol 100% for 15 min at room temperature. Ethanol was then removed, and the biofilms were left to air-dry completely at RT. Crystal violet, diluted to 1:100 in deionized water from the 2.3% commercial solution (HT90132, Sigma-Aldrich, St. Louis, MO), was added to the wells and, after a 5 min incubation with the dye, the biofilms were washed twice with deionized water and left to air-dry for about 10 min. The dye was solubilized in ethanol 100% for 1 h, and absorbance was measured at 595 nm using a Multiskan Sky microplate spectrophotometer (Thermo Scientific, Vantaa, Finland).

S. aureus ATCC 25923 [1] = test: Antibacterial activity, post-exposure on preformed 18-h-old biofilms; assay type: cell-based, Staphylococcus aureus; settings: ± SD; for inhibition at 25 µM / inhibition at 50 µM / inhibition at 100 µM / inhibition at 200 µM: Staphylococcus aureus; for inhibition at 25 µM: ATCC25923, 25 µM; for inhibition at 50 µM: ATCC25923, 50 µM; for inhibition at 100 µM: ATCC25923, 100 µM; for inhibition at 200 µM: ATCC25923, 200 µM
Experimental: For the post-exposure experiment, bacteria were grown with no compounds in the same conditions for 18 h, after which the media was changed, and compounds were added on the preformed biofilms. The plates were then incubated in the same conditions for an additional 24 h before proceeding to the staining assays.
as §2, §3

P. aeruginosa ATCC 9027 = test: Antibacterial activity, pre-exposure; assay type: cell-based, Pseudomonas aeruginosa; settings: for Average inhibition %, biofilms viability / Average inhibition %, planktonic cells viability / inhibition at 50 µM / inhibition at 100 µM / inhibition at 150 µM / inhibition at 200 µM: P. aeruginosa ATCC 9027, pre-exposure, ± SD; for inhibition at 50 µM / inhibition at 100 µM / inhibition at 150 µM / inhibition at 200 µM: Pseudomonas aeruginosa, ATCC9027
Experimental: as §1, §2, §3

S. aureus ATCC 25923 [2] = test: Antibacterial activity, pre-exposure (planktonic cells and biofilm formation); assay type: cell-based, Staphylococcus aureus; settings: for MIC / inhibition at 5 µM / inhibition at 10 µM / inhibition at 15 µM / inhibition at 25 µM: Staphylococcus aureus, ATCC25923; for inhibition at 5 µM / inhibition at 10 µM / inhibition at 15 µM / inhibition at 25 µM / Average inhibition %, biofilms viability / Average inhibition %, planktonic cells viability: pre-exposure, ± SD
Summary of the method: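 Read-outs were turbidity and resazurin reduction for planktonic cells, and resazurin followed by crystal violet biomass (A595) for biofilms. Compounds were present from inoculation onward, with 18 h aerobic growth at 37 °C under shaking.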

[3] = 10 µM, read-out: Average inhibition %, biofilms biomass
[4] = 10 µM, read-out: Average inhibition %, planktonic cells turbidity
[5] = 15 µM, read-out: Average inhibition %, biofilms biomass
[6] = 15 µM, read-out: Average inhibition %, planktonic cells turbidity
[7] = 25 µM, read-out: Average inhibition %, biofilms biomass
[8] = 25 µM, read-out: Average inhibition %, planktonic cells turbidity
[9] = 50 µM, read-out: Average inhibition %, biofilms biomass
[10] = 50 µM, read-out: Average inhibition %, planktonic cells turbidity
[11] = read-out: Average inhibition %, biofilms biomass
[12] = read-out: Average inhibition %, planktonic cells turbidity

## CCCCCCCCc1ccc2cc(CC(N)(CO)CO)ccc2c1 [Compound 79, 2-Amino-2-[(6-octylnaphthalen-2-yl)methyl]propane-1,3-diol]
A. baumannii NCTC 13423; 10 µM
  Average inhibition %, biofilms viability: 0.3 ± 0.6%
  Average inhibition %, planktonic cells viability: 4.7 ± 4.7%
A. baumannii NCTC 13423; 15 µM
  Average inhibition %, biofilms viability: 0.7 ± 0.6%
  Average inhibition %, planktonic cells viability: 4.2 ± 4.8%
A. baumannii NCTC 13423; 25 µM
  Average inhibition %, biofilms viability: 1.2 ± 1.5%
  Average inhibition %, planktonic cells viability: 0 ± 0%
A. baumannii NCTC 13423; 50 µM
  Average inhibition %, biofilms viability: 6.5 ± 6.4%
  Average inhibition %, planktonic cells viability: 0 ± 0%
A. baumannii NCTC 13423; [3]
  inhibition at 10 µM: 1.7 ± 3%
A. baumannii NCTC 13423; [4]
  inhibition at 10 µM: 0%
A. baumannii NCTC 13423; [5]
  inhibition at 15 µM: 3.3 ± 5.7%
A. baumannii NCTC 13423; [6]
  inhibition at 15 µM: 0%
A. baumannii NCTC 13423; [7]
  inhibition at 25 µM: 0.2 ± 0.4%
A. baumannii NCTC 13423; [8]
  inhibition at 25 µM: 0%
A. baumannii NCTC 13423; [9]
  inhibition at 50 µM: 3.3 ± 5.1%
A. baumannii NCTC 13423; [10]
  inhibition at 50 µM: 0.3 ± 0.6%
A. baumannii NCTC 13423; pre-exposure, Inactive = no activity up to 50 μM, > = some inhibition but no MIC reached
  MIC A. baumannii NCTC 13423: Inactive
S. aureus ATCC 25923 [1]; 25 µM
  Average inhibition %, biofilms viability: 15.4 ± 3.3%
  Average inhibition %, planktonic cells viability: 0.3 ± 0.6%
S. aureus ATCC 25923 [1]; 50 µM
  Average inhibition %, biofilms viability: 23.3 ± 4.3%
  Average inhibition %, planktonic cells viability: 0 ± 0%
S. aureus ATCC 25923 [1]; 100 µM
  Average inhibition %, biofilms viability: 28.7 ± 6.3%
  Average inhibition %, planktonic cells viability: 23.6 ± 15.5%
S. aureus ATCC 25923 [1]; 200 µM
  Average inhibition %, biofilms viability: 28.8 ± 6.5%
  Average inhibition %, planktonic cells viability: 57 ± 23.8%
S. aureus ATCC 25923 [1]; [11]
  inhibition at 25 µM: 21.5 ± 4.7%
  inhibition at 50 µM: 29.7 ± 10.3%
  inhibition at 100 µM: 36.6 ± 6.4%
  inhibition at 200 µM: 43.1 ± 20.9%
S. aureus ATCC 25923 [1]; [12]
  inhibition at 25 µM: 16.1 ± 25.9%
  inhibition at 50 µM: 12.4 ± 8.3%
  inhibition at 100 µM: 25.7 ± 16.3%
  inhibition at 200 µM: 31.5 ± 11.1%
P. aeruginosa ATCC 9027; 50 µM
  Average inhibition %, biofilms viability: 0 ± 0%
  Average inhibition %, planktonic cells viability: 3.9 ± 3.6%
P. aeruginosa ATCC 9027; 100 µM
  Average inhibition %, biofilms viability: 0 ± 0%
  Average inhibition %, planktonic cells viability: 1.9 ± 2.3%
P. aeruginosa ATCC 9027; 150 µM
  Average inhibition %, biofilms viability: 0.5 ± 0.9%
  Average inhibition %, planktonic cells viability: 4.2 ± 7.4%
P. aeruginosa ATCC 9027; 200 µM
  Average inhibition %, biofilms viability: 2.1 ± 3.6%
  Average inhibition %, planktonic cells viability: 7.6 ± 13.1%
P. aeruginosa ATCC 9027; [9]
  inhibition at 50 µM: 1.2 ± 1.5%
P. aeruginosa ATCC 9027; [10]
  inhibition at 50 µM: 23.6 ± 9%
P. aeruginosa ATCC 9027; 100 µM, read-out: Average inhibition %, biofilms biomass
  inhibition at 100 µM: 3.6 ± 4.7%
P. aeruginosa ATCC 9027; 100 µM, read-out: Average inhibition %, planktonic cells turbidity
  inhibition at 100 µM: 23 ± 3.8%
P. aeruginosa ATCC 9027; 150 µM, read-out: Average inhibition %, biofilms biomass
  inhibition at 150 µM: 6.1 ± 5.3%
P. aeruginosa ATCC 9027; 150 µM, read-out: Average inhibition %, planktonic cells turbidity
  inhibition at 150 µM: 28 ± 2.4%
P. aeruginosa ATCC 9027; 200 µM, read-out: Average inhibition %, biofilms biomass
  inhibition at 200 µM: 0%
P. aeruginosa ATCC 9027; 200 µM, read-out: Average inhibition %, planktonic cells turbidity
  inhibition at 200 µM: 25 ± 2.8%
P. aeruginosa ATCC 9027; pre-exposure, Inactive = no activity up to 200 μM, > = some inhibition but no MIC reached
  MIC P. aeruginosa ATCC 9027: Inactive
S. aureus ATCC 25923 [2]; lowest concentration with no visible growth (>90% inhibition of turbidity and viability of planktonic cells), 18 h, read-out: MIC S. aureus ATCC 25923
  MIC: 10 µM (≈ 3.44 µg/mL)
S. aureus ATCC 25923 [2]; 5 µM, read-out: Average inhibition %, biofilms biomass
  inhibition at 5 µM: 37.5 ± 32.5%
S. aureus ATCC 25923 [2]; 5 µM, read-out: Average inhibition %, planktonic cells turbidity
  inhibition at 5 µM: 15.2 ± 17.2%
S. aureus ATCC 25923 [2]; [3]
  inhibition at 10 µM: 91.3 ± 5.8%
S. aureus ATCC 25923 [2]; [4]
  inhibition at 10 µM: 98.7 ± 0.9%
S. aureus ATCC 25923 [2]; [5]
  inhibition at 15 µM: 92.1 ± 4.9%
S. aureus ATCC 25923 [2]; [6]
  inhibition at 15 µM: 98.7 ± 1%
S. aureus ATCC 25923 [2]; [7]
  inhibition at 25 µM: 92.5 ± 4.2%
S. aureus ATCC 25923 [2]; [8]
  inhibition at 25 µM: 98.5 ± 1%
S. aureus ATCC 25923 [2]; read-out: MIC (S. aureus)
  MIC: 10 µM (≈ 3.44 µg/mL)
S. aureus ATCC 25923 [2]; 5 µM
  Average inhibition %, biofilms viability: 28 ± 2.7%
  Average inhibition %, planktonic cells viability: 26.3 ± 24.3%
S. aureus ATCC 25923 [2]; 10 µM
  Average inhibition %, biofilms viability: 98.1 ± 0.5%
  Average inhibition %, planktonic cells viability: 99.8 ± 0%
S. aureus ATCC 25923 [2]; 15 µM
  Average inhibition %, biofilms viability: 99.3 ± 0.2%
  Average inhibition %, planktonic cells viability: 99.8 ± 0.1%
S. aureus ATCC 25923 [2]; 25 µM
  Average inhibition %, biofilms viability: 99.2 ± 0.3%
  Average inhibition %, planktonic cells viability: 99.9 ± 0.2%
